Experimental data as given in patent US20050032124A1, “Identification of genotype-selective agents for treating Huntington's disease” (priority 2003, published 2005).

Experiments:
Type in all cases: cell-based, human
reactive oxygen species = assay: ROS analysis, flow cytometry using H2DCF-DA; details: engineered cells
Description: 2′7′ dichlorodihydrofluorescein diacetate (H2DCF-DA) is a non-fluorescent cell permeable compound. The endogenous esterase enzyme inside the cell cleaves the diacetate part, and it can no longer pass out of the cell. Thus it accumulates in the cell. Then H2DCF reacts with ROS to form fluorescent dichlorofluorescene (DCF) which can be measured by flow cytometry in FL1 channel. • 1. Seed cells at 3×10^5 cells per dish in 60 mm dishes and allow to grow overnight. • 2. Treat with the test compound for different period of time (1-10 hr). • 3. Maintain one dish for untreated cells, compound treated cell and positive control dish (hydrogen peroxide treated) for each time point. • 4. Incubate the cells with 10 μM of H2DCF-DA for 10 minutes at 37° C. • 5. For positive control cells, after 5 minutes of H2DCF-DA loading, add 500 μM of hydrogen peroxide and incubate for 5 minutes further. • 6. Harvest the cell by trypsinization. • 7. Wash with cold PBS-twice. • 8. Resuspend the pellet in 100 μl of PBS and transfer into 5 ml FACS tube. • 9. Add 5 μl of propidium iodide (50 μg/ml) and incubate for 10 minutes on ice in dark. • 10. Add 400 μl of PBS and analyze by flow cytometry (Becton-Dickinson). • 11. Acquire the data and analyze using CellQuest software program. • 12. Take only propidium iodiode negative cells (viable cells) for the analysis for DCF staining using the FLI channel, PI in FL3 channel, plot a quadrant chart.

[1] = system: BJ-TERT/LT/ST/RAS^V12 cells; assay: Annexin V-FITC apoptosis assay; details: untreated 6%
Description: BJ-TERT/LT/ST/RAS^V12 cells were seeded at 1×10^6 cells per dish in 100 mm dishes and allowed to grow overnight. Cells were treated with erastin (5 or 10 μg/ml) for 6, 8 or 11 h. A camptothecin-treated (0.4 μg/ml) control was maintained, treated at the time of seeding for 20 hours. After the treatment, cells were harvested with trypsin/EDTA and washed once with fresh medium containing serum and then twice with phosphate buffered saline. Cells were resuspended in 1× binding buffer (BD Pharmingen) at a concentration of 1×10^6 cells/mi. 100 μl (1×10^5 cells) was incubated with 5 μl of Annexin V- FITC (BD Pharmingen) and propidium iodiode (BD Pharmingen) for 15 minutes in the dark at room temperature. Then 400 μl of the 1× binding buffer was added and the cells analyzed by flow cytometry (Becton-Dickinson). Data were acquired and analyzed using Cellquest software.

[2] = system: BJ-TERT/LT/ST/RAS^V12 cells; assay: Block of compound-induced cell death by pan-caspase inhibitor; details: 50 μM Boc-Asp(Ome)-fluoromethyl ketone
[3] = system: BJ-TERT/LT/ST/RAS^V12 cells; assay: DNA fragmentation (DNA ladder)
[4] = system: active, cleaved form of caspase 3; assay: Western blot for active caspase-3; details: BJ-TERT/LT/ST/RAS^V12 cells
Description: BJ-TERT/LT/ST/RAS^V12 cells were seeded prior to the experiment at 5×10^5 cells in 60 mm dishes. The cells were treated with 5 μg/ml erastin (9 μM) for 2, 4, 6, 8 or 10 hours. One dish was maintained for camptothecin treatment (0.4 μg/ml for 24 h) as a positive control. Cells were lysed after each time point in lysis buffer (50 mM HEPES KOH pH […] NaCl, 2 mM EDTA, 0.5% Triton X-100, 1.5 mM Na3VO4, 50 mM NaF, 10 mM sodium pyrophosphate, 10 mM sodium beta-glycerophosphate and protease inhibitor tablet (Roche)). Protein content was quantified using a Biorad protein assay reagent. Equal amounts of protein were resolved on 16% SDS-polyacrylamide gel. The electrophoresed proteins were transblotted onto a PVDF membrane, blocked with 5% milk and incubated with anti-active caspase-3 polyclonal antibody (BD Pharmingen) at 1:1500 dilution overnight at 4° C. The membrane was then incubated in anti-rabbit-HRP (Santa Cruz Biotechnology) at 1:3000 dilution for 1 hour and developed with an enhanced chemiluminescence mixture (NEN life science, Renaissance). To test for equivalent loading in each lane, blots were stripped, blocked, and probed with an anti-eIF-4E antibody (BD Transduction laboratories) at 1:1000 dilution.

[5] = system: BJ-TERT/LT/ST/RAS^V12 cells; assay: Nuclear morphology assay; details: 18 hours
Description: Applicants sought to characterize the type of cell death induced by CPT and erastin in tumorigenic BJ-TERT/LT/ST/RAS^V12 cells. […] To determine whether erastin or CPT induces apoptosis in their system, Applicants monitored the nuclear morphology of CPT- and erastin-treated tumorigenic cells using fluorescence microscopy. […] Since nuclear morphological change is required of apoptotic cells, Applicants conclude that cell death induced by erastin is non-apoptotic. […] Additionally, nuclei remained intact in erastin-treated tumor cells (FIG. 9).
200,000 tumorigenic BJ-TERT/LT/ST/RAS^V12 cells were seeded in 2 mL on glass coverslips in each well of a six-well dish, treated with nothing (NT), 9 μM erastin or 1.1 μM camptothecin (CPT) in growth medium for 18 hours while incubating at 37° C. with 5% CO2. Nuclei were stained with 25 μg/mL Hoechst 33342 (Molecular Probes) and viewed using an oil immersion 100× objective on a fluorescence microscope.

For `O=C1c2c(O)ccc(O)c2C(=O)c2c(NCCNCCO)ccc(NCCNCCO)c21` [Mitoxantrone], the “formation of reactive oxygen species (ROS)” value (shortened to “formation … (ROS)”) (reactive oxygen species) was “did not observe the formation of ROS”.

For `CCOc1ccccc1-n1c(C(C)N2CCN(C(=O)COc3ccc(Cl)cc3)CC2)nc2ccccc2c1=O` (stereo not shown) [Erastin], the “percentage of cells in the M1 region (Annexin V staining)” value ([1]; erastin-treated (9 μM)) was 6%.

`CC[C@@]1(O)C(=O)OCc2c1cc1n(c2=O)Cc2cc3ccccc3nc2-1` [Camptothecin] was tested, and the “cell death blocked by pan-caspase inhibitor” value [2] was “partially blocked”, the “DNA fragmentation (formation of a DNA ladder)” value [3] was “induces DNA fragmentation” and the “activated caspase 3 (western blot)” value [4] was “harbor activated caspase 3”. The “percentage of cells in the M1 region (Annexin V staining)” value ([1]; camptothecin-treated (1 μM)) was 38%, the “fragmented nuclei, % of total nuclei” value ([5]; 1.1 μM camptothecin) was 10-20% and the “nuclear morphology (karyorhexis and margination of chromatin)” value ([5]; 9 μM erastin or 1.1 μM CPT) was “karyorhexis and margination of chromatin were clearly visible”.

In the case of `COc1cccc2c1C(=O)c1c(O)c3c(c(O)c1C2=O)C[C@@](O)(C(C)=O)C[C@@H]3O[C@H]1C[C@H](N)[C@H](O)[C@H](C)O1` [Daunorubicin], the “formation … (ROS)” value (reactive oxygen species) is reported as “did not observe the formation of ROS”.

`COc1cccc2c1C(=O)c1c(O)c3c(c(O)c1C2=O)C[C@@](O)(C(=O)CO)C[C@@H]3O[C@H]1C[C@H](N)[C@H](O)[C@H](C)O1` [Doxorubicin] was tested, and the “formation … (ROS)” value (reactive oxygen species) was “did not observe the formation of ROS”.
